This is an account of results in patent US11648289B2, “Antibacterial method” (priority 2016, dated 2023).

≈ marks a conversion by molar mass, not a printed value. Read-outs that look alike come from different tables or passages of the source. No end group written: not given here.

Assay [1] has as its system SH 4015. Nature of the assay: microbe, parasite or virus in culture. As for the experimental part: (§1) All the strains (see below) used in minimal inhibitory concentration (MIC) assays (Ovchinnikov et al., 2017, Front Microbiol., 8, p774, doi:10.3389/fmicb.2017.00774) were grown in BHI medium (Oxoid) at 30° C. without shaking. The tested strains were obtained from the LMG collection. […] NisinZ and micrococcin P1 were purified from source. Synthesized peptides were solubilized to concentrations of 10.0-0.1 mg/ml in 0.1% (vol/vol) trifluoroacetic acid and stored at −20° C. until use. Garvicin KS is made up of 3 peptides:
(§2) Bacteriocin activity was determined using a microtitre plate assay. The plates were incubated at 30° C. for 8 h and the growth was measured spectrophotometrically at 600 nm (A600) with 15 min intervals using SPECTROstarNano (BMG LABTECH, Germany). The MIC was defined as the bacteriocin concentration that inhibited the growth of the indicator strain by at least 50% in 200 μl culture (i.e., 50% of the turbidity of the control culture without bacteriocin).

In assay [2] the test system is Sa3323. The experiment in a line: microbe, parasite or virus in culture. As for the experimental part:
as §1, §2

The test system of assay [3] is SH 4016. The experiment in a line: microbe, parasite or virus in culture. As for the experimental part: as §1, §2
Assay [4] deals with Sa 3242. Nature of the assay: microbe, parasite or virus in culture. As for the experimental part: as §1, §2
The test system of assay [5] is Sa 3328. The experiment in a line: microbe, parasite or virus in culture. As for the experimental part: as §1, §2
Assay [6] concerns Sa3324. Nature of the assay: microbe, parasite or virus in culture. On the procedure:
as §1, §2

For assay [7], the system named is Sa ATCC 33591. The experiment in a line: microbe, parasite or virus in culture. As for the experimental part:
as §1, §2

Assay [8] has as its system SP 4012. Nature of the assay: organism not typed. On the procedure:
as §1, §2

Assay [9] deals with SP 4013. The experiment in a line: organism not typed. On the procedure:
as §1, §2

Assay [10] has as its system SP 4014. The experiment in a line: organism not typed. On the procedure: as §1, §2
Assay [11] has as its system KAVA. Nature of the assay: MIC microtitre plate assay, pathogenic isolates. The class given is cell-based. As for the experimental part: The tested strains were obtained from the LMG collection. […] NisinZ and micrococcin P1 were purified from source. […] Garvicin KS is made up of 3 peptides:
Bacteriocin activity was determined using a microtitre plate assay. The plates were incubated at 30° C. for 8 h and the growth was measured spectrophotometrically at 600 nm (A600) with 15 min intervals using SPECTROstarNano (BMG LABTECH, Germany).

Assay [12] relates to S. pseudointermedius (3). As for the experimental part: as §1, §2
Assay [13] has as its system E. faecalis (2). Particulars: 2. On the procedure:
as §1, §2

For assay [14], the system named is E. hirae (4). On the procedure:
as §1, §2

Assay [15] has as its system E. faecium (2). As for the experimental part: as §1, §2
The subject of assay [16] is Listeria spp. (3). On the procedure:
as §1, §2

Assay [17] relates to EntEJ97/EntK1 resistant mutants of E. faecalis and E. faecium. Nature of the assay: Challenge of EntEJ97/EntK1 resistant mutants with non-related bacteriocins. The class given is cell-based. Particulars: all HR and LR mutants, compared to WT.
From the text: To analyze whether this active site is important for bacteriocin sensitivity, we changed the invariant residues in this motif —H18-E19-F20-G21-H22—one by one and altogether in the enterococcal RseP (invariant residues underlined) to alanine and then assessed for bacteriocin sensitivity.

As for `C=C(NC(=O)[C@@H](NC(=O)[C@H](Cc1c[nH]cn1)NC(=O)[C@@H](NC(=O)[C@H](CO)NC(=O)[C@@H]1CS[C@@H](C)[C@H]2NC(=O)[C@H](C)NC(=O)[C@H](NC(=O)[C@H](CCCCN)NC(=O)[C@H](CCSC)NC(=O)[C@H](CC(N)=O)NC(=O)[C@@H]3CS[C@@H](C)[C@@H](NC(=O)[C@H](CCCCN)NC(=O)[C@@H]4CS[C@@H](C)[C@@H](NC(=O)[C@@H]5CSC[C@@H](NC(=O)/C(=C/C)NC(=O)[C@@H](N)[C@@H](C)CC)C(=O)N[C@@H]([C@@H](C)CC)C(=O)NC(=C)C(=O)N[C@@H](CC(C)C)C(=O)N5)C(=O)N5CCC[C@H]5C(=O)NCC(=O)N4)C(=O)NCC(=O)N[C@@H](C)C(=O)N[C@@H](CC(C)C)C(=O)N[C@@H](CCSC)C(=O)NCC(=O)N3)[C@H](C)SC[C@H](NC2=O)C(=O)N[C@@H](CC(N)=O)C(=O)N1)[C@@H](C)CC)C(C)C)C(=O)N[C@@H](CCCCN)C(=O)O` [NisinZ, reference compound], the MIC in assay [1] (SH 4015 (S. haemolyticus)) is 1.6 to 3.1 µg/mL; in [2] (Sa3323 (S. aureus)), 6.25 µg/mL (≈ 1.88 µM); in assay [3] (SH 4016 (S. haemolyticus)) it was 1.6 to 3.1 µg/mL; in [4] (Sa 3242 (S. aureus)), 3.1 µg/mL (≈ 0.931 µM); in assay [5] (Sa 3328 (S. aureus)), 0.8 µg/mL (≈ 0.24 µM); in assay [6] (Sa3324 (S. aureus)), 1.6 µg/mL (≈ 0.48 µM). Further, the MIC was found to be 0.8 µg/mL (≈ 0.24 µM) in assay [7] (Sa ATCC 33591 (S. aureus)), 0.4 µg/mL (≈ 0.12 µM) in assay [8] (SP 4012 (S. pseudointermedius)), 0.4 µg/mL (≈ 0.12 µM) in [9] (SP 4013 (S. pseudointermedius)) and 0.4 µg/mL (≈ 0.12 µM) in assay [10] (SP 4014 (S. pseudointermedius)).
For `C/C=C(\NC(=O)c1csc(-c2csc(-c3ccc4c(n3)-c3csc(n3)[C@H]([C@@H](C)O)NC(=O)c3csc(n3)[C@H](C(C)C)NC(=O)c3csc(n3)/C(=C/C)NC(=O)[C@H]([C@@H](C)O)NC(=O)c3csc-4n3)n2)n1)C(=O)NC[C@@H](C)O` [micrococcinP1, Micrococcin P1, reference compound], the MIC in assay [1] (Staphylococcus haemolyticus) came out at 1.6 µg/mL (≈ 1.4 µM); in assay [2] (Staphylococcus aureus), 0.1 µg/mL (≈ 0.0874 µM); in [3] (Staphylococcus haemolyticus), 1.6 µg/mL (≈ 1.4 µM); in assay [4] (Staphylococcus aureus, 3242), 0.2 µg/mL (≈ 0.175 µM); in assay [5] (Staphylococcus aureus, 3328), 0.1 µg/mL (≈ 0.0874 µM); in assay [6] (Staphylococcus aureus) it was 0.1 µg/mL (≈ 0.0874 µM). The MIC is 0.4 µg/mL (≈ 0.35 µM) in assay [7] (Staphylococcus aureus, ATCC33591); over 12.5 µg/mL in assay [11]; 0.4 µg/mL (≈ 0.35 µM) in assay [8]; 0.4 µg/mL (≈ 0.35 µM) in assay [9]; 0.8 µg/mL (≈ 0.699 µM) in [10].
“MIKKFPNPYTLAAKLTTYEINWYKQQYGRYPWERPVA [EntEJ97short]”: the MIC in [12] was 1.6 to 31 µg/mL; in assay [13], 1.6 µg/mL; in assay [14], 0.1 to 0.4 µg/mL; in assay [15] (2), 12.5 to 25 µg/mL; in [16], over 50 µg/mL; in assay [1], 1.6 to 3.1 µg/mL. Also, the MIC in assay [2] is 3.1 to 6.25 µg/mL; in assay [3], 1.6 to 3.1 µg/mL; in assay [4], 12.5 µg/mL; in [5] it was 3.1 µg/mL; in assay [6], 6.25 µg/mL; in assay [7] (ATCC 33591), over 50 µg/mL. The MIC in assay [11] (KAVA) is over 50 µg/mL; in assay [8], 3.1 µg/mL; in [9] it was 3.1 µg/mL; in [10] it was 1.6 to 3.1 µg/mL.
Consider “MKFKFNPTGTIVKKLTQYEINWYKQQYGRYPWERPVA [K1-EJ hybrid]”, for which the MIC was 12.5 to 25 µg/mL in [12]; 1.6 to 3.1 µg/mL in [13]; 0.1 to 0.4 µg/mL in assay [14]; under 0.05 to 0.4 µg/mL in assay [15] (E. faecium (2), Table 6B); 6.25 to 25 µg/mL in [16]; 0.8 µg/mL in assay [1]. In addition, the MIC in assay [2] is 3.2 to 6.25 µg/mL; in assay [3], 0.8 to 1.6 µg/mL; in assay [4], 3.1 µg/mL; in assay [5] it was 3.1 µg/mL; in assay [6] it was 6.25 µg/mL; in assay [7] (ATCC 33591), over 50 µg/mL. For the same molecule, the MIC is over 50 µg/mL in [11] (KAVA), 25 µg/mL in [8], 12.5 µg/mL in assay [9] and 12.5 µg/mL in assay [10].
Regarding “MLAKIKAMIKKFPNPYTLAAKLTTYEIAWFKNKHGYYPWEIPRC [EJ-K1 hybrid]”, the MIC is 50 µg/mL in assay [12]; 25 to 50 µg/mL in assay [13]; 3.2 to 6.3 µg/mL in assay [14]; 3.15 µg/mL in [15] (2); 50 µg/mL in assay [1]; 3.2 to 6.25 µg/mL in assay [2]. The MIC in assay [3] is 50 µg/mL; in assay [4] it was 12.5 µg/mL; in assay [5], 6.25 µg/mL; in assay [6] it was 12.5 µg/mL; in assay [7] (ATCC 33591), over 50 µg/mL; in [11] (KAVA), over 50 µg/mL. Further, the MIC in [8], in assay [9] and in assay [10] was over 50 µg/mL in each case.
Consider garvicin ML, for which, in assay [17], the “sensitivity of EntEJ97/EntK1 resistant mutants to non-related bacteriocin” value is reported as “as sensitive as the WT strains”.

B1: GarKS: Garvicin KS is made up of 3 peptides (SEQ ID NO:43, 44, 45) (peptide, listed as Lactococcus garvieae)
chain 1: MGAIIKAGAKIVGKGVLGGGASWLGWNVGEKIWK
chain 2: MGAIIKAGAKIIGKGLLGGAAGGATYGGLKKIFG
chain 3: MGAIIKAGAKIVGKGALTGGGVWLAEKLFGGK
Turning to B1, the MIC in assay [1] (SH 4015 (S. haemolyticus)) came out at 6.25 µg/mL; in assay [2] (Sa3323 (S. aureus)), 6.25 µg/mL; in assay [3] (SH 4016 (S. haemolyticus)), 6.25 µg/mL; in assay [4] (Sa 3242 (S. aureus)) it was 3.1 µg/mL; in assay [5] (Sa 3328 (S. aureus)), 3.1 µg/mL; in assay [6] (Sa3324 (S. aureus)), 6.25 µg/mL. Besides, the MIC in [7] (Sa ATCC 33591 (S. aureus)) is 12.5 µg/mL; in assay [11] (KAVA), 6.25 to 12.5 µg/mL; in assay [8] (SP 4012 (S. pseudointermedius)) it was 6.25 µg/mL; in assay [9] (SP 4013 (S. pseudointermedius)) it was 6.25 µg/mL; in assay [10] (SP 4014 (S. pseudointermedius)), 6.25 µg/mL.
